According to ChEMBL document CHEMBL6087480, “In Search for Inhibitors of Human Aldo-Keto Reductase 1B10 (AKR1B10) as Novel Agents to Fight Cancer and Chemoresistance: Current State-of-the-Art and Prospects” (J Med Chem, 2025):
pIC50: −log10 of the molar value.

Assays:
[1] = target: T1, Aldo-keto reductase family 1 member B1 (Homo sapiens, UniProt P15121); experiment: Inhibition of human recombinant AKR1B1
[2] = target: T2, Aldo-keto reductase family 1 member B10 (Homo sapiens, UniProt O60218); experiment: Inhibition of AKR1B10 (unknown origin)
T2 sequence (O60218 whole entry): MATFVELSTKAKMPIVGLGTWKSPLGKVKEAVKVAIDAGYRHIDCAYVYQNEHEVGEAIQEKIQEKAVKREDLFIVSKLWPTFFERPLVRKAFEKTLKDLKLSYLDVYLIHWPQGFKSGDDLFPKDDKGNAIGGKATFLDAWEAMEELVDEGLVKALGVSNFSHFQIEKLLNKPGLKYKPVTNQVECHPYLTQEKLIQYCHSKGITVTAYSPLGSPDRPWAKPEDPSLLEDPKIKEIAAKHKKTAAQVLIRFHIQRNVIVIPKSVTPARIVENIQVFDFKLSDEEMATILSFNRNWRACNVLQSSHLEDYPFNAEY

[3] = target: T1, Aldo-keto reductase family 1 member B1; experiment: Inhibition of AKR1B1 (unknown origin)
[4] = target: T1, Aldo-keto reductase family 1 member B1; experiment: Inhibition of human recombinant AKR1B1 by fluorescence based analysis
[5] = target: T2, Aldo-keto reductase family 1 member B10; experiment: Inhibition of human recombinant AKR1B10
[6] = target: T1, Aldo-keto reductase family 1 member B1; experiment: Inhibition of N-terminal 6his-tagged wild type human recombinant AKR1B1 extracted from Escherichia coli BL21 (DE3) by fluorescence based analysis

Row | SMILES | pIC50 [2] | pIC50 [3] | also measured
1 | COc1cc(/C=C/C(=O)CC(=O)/C=C/c2ccc(O)cc2)ccc1O |  |  | pIC50 [1]: 5.92
2 | COc1ccc(OC)c(/N=c2\oc3cc(O)ccc3cc2C(=O)Nc2ccccn2)c1 | 7.70 |  | 
3 | COc1ccc(/N=c2\oc3cc(O)ccc3cc2C(=O)Nc2cccc(C)n2)cc1OC | 7.52 |  | 
4 | COc1ccc(/N=c2\oc3cc(O)ccc3cc2C(=O)Nc2ccccn2)c(OC)c1 | 8.00 |  | 
5 | COc1ccc(/N=c2\oc3cc(O)ccc3cc2C(=O)Nc2ccccn2)cc1 | 6.30 |  | 
6 | C[C@]12CCC(=O)C[C@@H]1CC[C@@H]1[C@@H]2CC[C@]2(C)C(=O)CC[C@@H]12 | 6.41 | 4.60 | 
7 | CC1=C(CC(=O)O)c2cc(F)ccc2/C1=C\c1ccc([S+](C)[O-])cc1 (stereo not given) |  |  | pIC50 [4]: 6.68; pIC50 [5]: 6.46
8 | O=C(O)Cn1ccc(=O)n(Cc2ccc(Cl)c([N+](=O)[O-])c2)c1=O | 4.67 | 5.00 | 
9 | Cc1c2cc(O)c(=O)cc-2oc2cc(O)c(O)cc12 | 6.40 |  | 
10 | COc1cc(O)ccc1/C=C/C(=O)OCCc1ccccc1 | 8.00 |  | 
11 | COc1cc(O)ccc1/C=C/C(=O)OCCCc1ccccc1O | 7.00 |  | 
12 | COc1cc(O)ccc1/C=C/C(=O)OCCCc1cccc(O)c1 | 6.30 |  | 
13 | CC(C)=CCc1c(O)cc2oc3cc(O)c(O)c(CC=C(C)C)c3c(=O)c2c1O |  |  | pIC50 [1]: 6.54
14 | O=C(/C=C/c1ccc(O)c(O)c1)O[C@H]1C[C@@](O)(C(=O)O)C[C@H](O)[C@@H]1O | 5.10 |  | 
15 | CC(C)=CCC1=C(O)[C@](O)(CC=C(C)C)C(=O)C(C(=O)CC(C)C)=C1O | 5.71 | < 3.90 | 
16 | C=CCc1cc(-c2cccc(CC=C)c2O)ccc1O |  |  | pIC50 [1]: 4.44
17 | O=C(NCCCc1cccc(O)c1)c1cc2ccc(O)cc2oc1=O | 6.10 |  | 
18 | CC(=O)[C@H]1CC[C@H]2[C@@H]3CC[C@H]4CC(=O)CC[C@]4(C)[C@H]3CC[C@]12C | 6.36 | 4.89 | 
19 | COc1cc(O)c(CC=C(C)C)c2c1C(=O)C[C@@H](c1ccc(O)cc1)O2 | 5.96 | 6.24 | 
20 | CC(=O)[C@H]1CC[C@H]2[C@@H]3CC[C@@H]4CC(=O)CC[C@]4(C)[C@H]3CC[C@]12C | 6.11 | 5.05 | 
21 | C[C@@]12CCC[C@H]1[C@@H]1C[C@H](O)C3=C[C@@H](O)CC[C@]3(C)[C@H]1CC2 | 6.30 | 4.17 | 
22 | Oc1c(F)c(F)c(-c2c(F)c(F)c(O)c(F)c2F)c(F)c1F | 6.00 | 6.52 | 
23 | CC(C)=CCC1=C(O)[C@](O)(CC=C(C)C)C(=O)C(C(=O)C(C)C)=C1O |  | < 3.90 | 
24 | C/C(=C\c1ccc(C(=O)O)cc1Br)c1ccc2c(c1)C(C)(C)CCC2(C)C | 5.21 | < 4.15 | 
25 | C[C@]12CCC(=O)C[C@@H]1CC[C@@H]1[C@@H]2CC[C@]2(C)[C@@H](C(=O)CO)CC[C@@H]12 | 6.43 | 4.26 | 
26 | COc1c(Cn2c(=O)ccn(CC(=O)O)c2=O)cc(Br)c(Br)c1Br | 6.35 | 5.44 | 

Row | SMILES | pIC50 [2] | pIC50 [3] | also measured
27 | C[C@H](CCC(=O)O)[C@H]1CC[C@H]2[C@@H]3C[C@@H](O)[C@@]4(O)C[C@@H](O)CC[C@]4(C)[C@H]3CC[C@]12C | 6.08 | < 4.00 | 
28 | C[C@@]12CCC[C@H]1[C@@H]1CC(=O)C3=CC(=O)CC[C@]3(C)[C@H]1CC2 | 6.09 | 3.80 | 
29 | C[C@H](CCC(=O)O)[C@H]1CC[C@H]2[C@@H]3C[C@@H](O)[C@@]4(O)C[C@@H](O)CC[C@]4(CO)[C@H]3CC[C@]12C | 6.12 | 5.27 | 
30 | NC(=O)[C@@H]1C[C@]2(NC(=O)NC2=O)c2cc(F)ccc2O1 | 4.62 |  | pIC50 [6]: 7.10
31 | O=C(/C=C/c1ccc(O)c(O)c1)c1ccc(O)cc1O [BUTEIN] |  |  | pIC50 [1]: 6.30
32 | O=c1cc(-c2ccccc2)oc2cc(O)cc(O)c12 [CHRYSIN] | 5.68 | 6.54 | 
33 | COc1cc(/C=C/C(=O)CC(=O)/C=C/c2ccc(O)c(OC)c2)ccc1O [CURCUMIN] |  |  | pIC50 [1]: 5.14
34 | O=C(O)Cc1ccccc1Nc1c(Cl)cccc1Cl [DICLOFENAC] |  |  | pIC50 [4]: < 4.00
35 | Cc1cc(O)c2c(c1)C(=O)c1cc(O)cc(O)c1C2=O [EMODIN] |  |  | pIC50 [1]: 5.46
36 | C[C@]12CC[C@H](O)C[C@@H]1CC[C@@H]1[C@@H]2CC[C@]2(C)C(=O)CC[C@@H]12 [EPIANDROSTERONE] | 6.49 | 4.43 | 
37 | C[C@]12CC[C@@H]3c4ccc(O)cc4CC[C@H]3[C@@H]1CC[C@@H]2O [ESTRADIOL] | 5.52 | 4.62 | 
38 | C[C@]12CC[C@@H]3c4ccc(O)cc4CC[C@H]3[C@@H]1CCC2=O [ESTRONE] | 5.80 | 4.51 | 
39 | Cc1cc(O)c2c(c1)C(=O)c1cc(O[C@@H]3O[C@@H](C)[C@H](O)[C@@H](O)[C@H]3O)cc(O)c1C2=O [FRANGULIN A] |  |  | pIC50 [1]: 5.24
40 | Cc1cc(O)c2c(c1)C(=O)c1cc(O[C@@H]3OC[C@](O)(CO)[C@H]3O)cc(O)c1C2=O [FRANGULIN B] |  |  | pIC50 [1]: 5.26
41 | O=c1c(-c2ccc(O)cc2)coc2cc(O)cc(O)c12 [GENISTEIN] | 5.26 |  | 
42 | C[C@H](CCC(=O)O)[C@H]1CC[C@H]2[C@@H]3CC[C@@H]4C[C@@H](O)CC[C@]4(C)[C@H]3CC[C@]12C [ISOLITHOCHOLIC ACID] | 7.70 |  | 
43 | C=CCc1ccc(O)c(-c2cc(CC=C)ccc2O)c1 [MAGNOLOL] |  |  | pIC50 [1]: 4.55
44 | COc1c(O)cc2oc3cc(O)c(CC=C(C)C)c(O)c3c(=O)c2c1CC=C(C)C [MANGOSTIN] |  |  | pIC50 [1]: 5.39
45 | CC1(C)CC[C@]2(C(=O)O)CC[C@]3(C)C(=CC[C@@H]4[C@@]5(C)C[C@@H](O)[C@H](O)C(C)(C)[C@@H]5CC[C@]43C)[C@@H]2C1 [MASLINIC ACID] | 6.22 |  | 
46 | Cc1ccc(Cl)c(Nc2ccccc2C(=O)O)c1Cl [MECLOFENAMIC ACID] |  |  | pIC50 [4]: < 4.00; pIC50 [5]: 5.01
47 | O=c1c(O)c(-c2cc(O)c(O)c(O)c2)oc2cc(O)cc(O)c12 [MYRICETIN] |  | 6.21 | 
48 | O=c1c(O)c(-c2ccc(O)c(O)c2)oc2cc(O)cc(O)c12 [QUERCETIN] | 5.72 |  | 
49 | Oc1ccc(/C=C/c2cc(O)cc(O)c2)cc1 [RESVERATROL] |  |  | pIC50 [1]: 4.14
50 | CC(=O)[C@H]1CC[C@H]2[C@@H]3CC[C@H]4C[C@@H](O)CC[C@]4(C)[C@H]3CC[C@]12C [SEPRANOLONE] | 6.30 | 4.41 | 
51 | COc1ccc2c(C(=S)N(C)CC(=O)O)cccc2c1C(F)(F)F [TOLRESTAT] | 7.30 |  | 
52 | C[C@H](CCC(=O)O)[C@H]1CC[C@H]2[C@@H]3CC[C@@H]4CCCC[C@]4(C)[C@H]3CC[C@]12C [URSOCHOLANIC ACID] | 7.30 | 4.80 | 
